The values below come from US20260250247A1, “NOVEL INDOLINE DERIVATIVE AND USE THEREOF” (CK REGEON INC., priority 2023, published 2026).

For assay [1], the system named is 3T3-L1 pre-adipocytes. In words: Inhibition of adipocyte differentiation and lipid accumulation, Oil Red O. Format: cell-based. The note with it: 3T3-L1, compound 1 μM, MDI-induced differentiation for 8 days, Oil Red O eluted, absorbance 544 nm; for activity at 1 µM: Mus musculus, 192 h, read-out: lipid accumulation rate. As for the experimental part:
3T3-L1 cells were seeded in a 6-well plate at a density of […] cells per well. The cells were grown to 100% confluency in Dulbecco's modified Eagle's medium (DMEM) supplemented with 10% bovine calf serum (BCS; GIBCO). Two days after reaching 100% confluency, differentiation was induced with or without treatment with the indoline compound at a concentration of 1 μM in DMEM containing 10% fetal bovine serum (FBS; GIBCO) and MDI (520 μM methylisobutylxanthine (IBMX; Sigma-Aldrich), 1 μM dexamethasone (Sigma-Aldrich), and 5 μM insulin (GIBCO)). On day 3, the medium was replaced with DMEM containing 10% FBS and 5 μM insulin with or without the indoline compound, and then with a fresh identical medium every 2 days. After differentiation for 8 days, the culture medium was removed, and the cells were washed with PBS and then fixed with 10% formaldehyde for 1 hour. After removing the 10% formaldehyde, the cells were washed thoroughly with distilled water. After that, 60% isopropanol was added and immediately then removed. After washing with distilled water, lipid droplets were stained with an Oil Red O dye solution for 20 minutes and then washed with distilled water. The cells were counterstained with Mayer's hematoxylin. Oil Red O images were visualized using a bright-field microscope (Nikon TE-2000U). To quantify the accumulated lipids, Oil Red O was eluted by adding isopropanol, and absorbance was measured spectrophotometrically at 544 nm using a multi-plate reader.
As A3051 (KY19382) and A3334, self-developed and synthesized materials were used. As BIO, or GSK 3 Inhibitor IX, also known as 6-bromoindirubin-3′-oxime, HY-10580 was purchased commercially.
In FIG. 2, the undifferentiated group (Un Diff) refers to undifferentiated adipocytes, or preadipocytes that had not been induced to differentiate, and the differentiated group (Diff) refers to fully differentiated adipocytes.

In assay [2] the target is CXXC5-Dvl interaction (PDZ domain of Dvl (dishevelled) protein / PTD-DBM-FITC). In words: CXXC5-Dvl binding inhibition, competition of PTD-DBM-FITC on plate-bound Dvl PDZ domain. The note with it: purified Dvl PDZ domain 5 μg/mL, 10 μM PTD-DBM-FITC, compounds 0.001-100 μM, FITC fluorescence. The protocol:
5 μg/mL of the purified PDZ domain ofDvl (dishevelled) protein was attached to the bottom of a 96-well black immunoplate and left in a chamber at 4° C. for one day. The next day, each well was washed with PBS and 10 μM PTD-DBM-FITC was added. After incubation at room temperature for 3 hours, each well was washed with PBS. Each well was treated with the indoline derivatives at various concentrations (100, 10, 1, 0.1, 0.01, and 0.001 μM) in 100 μL of PBS. After washing with a buffer, fluorescence was measured by FITC using a microplate reader. A competition binding curve showing the degree of CXXC5-Dvl PPI inhibition was constructed using the GraphPad Prism software, and the IC50 value was calculated. […] CK090), and the intermediate compound 5-cyanoindirubin as controls.

Where a name gives a salt, the structure may show the parent alone.

With `O=C1Nc2cc(Br)ccc2/C1=C1/Nc2ccccc2/C1=N\O` [BIO, 6-bromoindirubin-3′-oxime, reference compound], the lipid accumulation rate in assay [1] is given as 79.4%. `Cc1cc2c(cc1Cl)NC(=O)/C2=C1\Nc2ccccc2\C1=N/OCCN1CCN(C)CC1` [CK090, (2Z,3E)-6′-chloro-5′-methyl-3-((2-(4-methylpiperazin-1-yl)ethoxy)imino)-[2,3′-biindolinylidene]-2′-one, reference compound]: in assay [2], the IC50 was 4220 nM. For `N#Cc1ccc2c(c1)/C(=C1/Nc3ccccc3/C1=N\OCCN1CCCCC1)C(=O)N2` [Example 5, (2Z,3E)-2′-oxo-3-((2-(piperidin-1-yl)ethoxy)imino)-[2,3′-biindolinylidene]-5′-carbonitrile], the IC50 in assay [2] was 9.29 nM. Moreover, the activity at 1 µM in assay [1] was 26.2%.

In turn, `N#Cc1ccc2c(c1)/C(=C1/Nc3ccccc3/C1=N\OCCN1CCCC1)C(=O)N2` [Example 6, (2Z,3E)-2′-oxo-3-((2-(pyrrolidin-1-yl)ethoxy)imino)-[2,3′-biindolinylidene]-5′-carbonitrile] showed an IC50 in assay [2] of 37 nM. The activity at 1 µM in assay [1] turned out to be 25.8%. Taken in the same sequence, the figures for `N#Cc1ccc2c(c1)/C(=C1/Nc3ccccc3/C1=N\OCCCN1CCCCC1)C(=O)N2` [Example 7, (2Z,3E)-2′-oxo-3-((3-(piperidin-1-yl)propoxy)imino)-[2,3′-biindolinylidene]-5′-carbonitrile] were 10.8 nM and 33.6%. The like results for `N#Cc1ccc2c(c1)/C(=C1/Nc3ccccc3/C1=N\OCCCN1CCCC1)C(=O)N2` [Example 8, (2Z,3E)-2′-oxo-3-((3-(pyrrolidin-1-yl)propoxy)imino)-[2,3′-biindolinylidene]-5′-carbonitrile] were, in that order, 17.2 nM and 25.1%. The compound `N#Cc1ccc2c(c1)/C(=C1/Nc3ccccc3/C1=N\OCCCN1CCNCC1)C(=O)N2` [Example 9, (2Z,3E)-2′-oxo-3-((3-(piperazin-1-yl)propoxy)imino)-[2,3′-biindolinylidene]-5′-carbonitrile] returned an IC50 in assay [2] of 20.4 nM. The activity at 1 µM in assay [1] amounted to 25.4%. The compound `N#Cc1ccc2c(c1)/C(=C1/Nc3ccccc3/C1=N\OCCCN1CCOCC1)C(=O)N2` [Example 10, (2Z,3E)-3-((3-morpholinopropoxy)imino)-2′-oxo-[2,3′-biindolinylidene]-5′-carbonitrile] showed an IC50 in assay [2] of 12.7 nM. Besides, in assay [1], the activity at 1 µM was found to be 24.3%.

Take `CN1CCN(CCCO/N=C2/C(=C3/C(=O)Nc4ccc(C#N)cc43)Nc3ccccc32)CC1` [Example 11, (2Z,3E)-3-((3-(4-methylpiperazin-1-yl)propoxy)imino)-2′-oxo-[2,3′-biindolinylidene]-5′-carbonitrile]: the IC50 in assay [2] worked out at 12.3 nM. In addition, the activity at 1 µM in assay [1] turned out to be 24.1%. Taken in the same sequence, the figures for `N#Cc1ccc2c(c1)/C(=C1/Nc3ccccc3/C1=N\OCCCN1CCSCC1)C(=O)N2` [Example 12, (2Z,3E)-2′-oxo-3-((3-thiomorpholinopropoxy)imino)-[2,3′-biindolinylidene]-5′-carbonitrile] were 6.26 nM and 27.4%.

Take `N#Cc1ccc2c(c1)/C(=C1/Nc3ccccc3/C1=N\OCCN1CCS(=O)(=O)CC1)C(=O)N2` [Example 13, (2Z,3E)-3-((2-(1,1-dioxidothiomorpholino)ethoxy)imino)-2′-oxo-[2,3′-biindolinidene]-5′-carbonitrile]: the IC50 in assay [2] was found to be 2.65 nM. Further, the activity at 1 µM in assay [1] amounted to 26.6%. `N#Cc1ccc2c(c1)/C(=C1/Nc3ccccc3/C1=N\OCCN1CC[S+]([O-])CC1)C(=O)N2` [Example 14, (2Z,3E)-3-((2-(1-oxidothiomorpholino)ethoxy)imino)-2′-oxo-[2,3′-biindolinidene]-5′-carbonitrile hydrochloride] yielded a half-maximal inhibitory concentration (IC50) in assay [2] of 26.1 nM. In assay [1], the activity at 1 µM came out at 26.8%.

In the case of `N#Cc1ccc2c(c1)/C(=C1/Nc3ccccc3/C1=N\OCCN1CCCC1C(=O)O)C(=O)N2` (stereo not drawn) [Example 15, (2-((((2Z,3E)-5′-cyano-2′-oxo-[2,3′-biindolinidene]-3-ylidene)amino)oxy)ethyl)proline], the 50% inhibitory concentration (IC50) in assay [2] amounted to 45.2 nM. For the same compound, the activity at 1 µM in assay [1] turned out to be 24.8%. In assay [1], `COc1ccc2c(c1)/C(=C1/Nc3ccccc3/C1=N\O)C(=O)N2` [Example A3334, reference compound] returned a lipid accumulation rate of 78.7%. Consider `O=C1Nc2ccccc2/C1=C1/Nc2ccccc2C1=O` [Indirubin, (Z)-[2,3′-biindolinylidene]-2′,3-dione, reference compound], for which the half-maximal inhibitory concentration (IC50) in assay [2] worked out at 53900 nM. In addition, the activity at 1 µM in assay [1] was 96.4%.
